Several values for one entry are separate records, joined by “and”; a condition that tells them apart may be missing. Equal entries are not always repeated.
Tests used:
[1] = test system: human platelets; test: Platelet aggregation inhibition (Born's method, thrombin-stimulated washed platelets); type: cell-based; conditions: 0.1 U/mL thrombin, mean +/- SD, at least six experiments in duplicate
Experimental: (§1) Freshly drawn venous blood from healthy volunteers of the “Centro Trasfusionale, Ospedale San Martino” in Genoa was collected into 130 mM aqueous trisodium citrate anticoagulant solution (9:1). The donors claimed to have not taken drugs known to interfere with platelet function during two weeks prior to blood collection and gave their informed consent. Washed platelets were prepared centrifuging whole blood at 100× g for 20 min. The obtained platelet-rich plasma was then centrifuged at 1100× g for 15 min. Pellet was washed once with pH 5.2 ACD solution (75 mM trisodium citrate, 42 mM citric acid and 136 mM glucose), centrifuged at 1100× g for 15 min and then re-suspended in pH 7.4 Hepes buffer (145 mM NaCl, 5 mM KCl, 1 mM MgSO4, 10 mM glucose, 10 mM HEPES).
Platelet aggregation was performed in a Bio-Data Aggregometer (Bio-Data Corporation, Horsham, PA, USA) according to Born’s method and quantified by the light transmission reached within 6 min at 37 °C. Briefly, washed platelets (3.0 × 10^8/mL) were pre-incubated for 3 min at 37 °C with saline, compound 4 or 5 before the addition of 0.1 U/mL thrombin. The IC50 values were calculated as above detailed.

[2] = test system: human platelets; test: ROS production inhibition in thrombin-stimulated washed platelets (DCFH-DA, flow cytometry); type: cell-based; conditions: for IC50: washed human platelets, 0.1 U/mL thrombin, DCFH-DA, mean +/- SD, at least six experiments in duplicate; for activity towards ROS production in platelets (in words): human platelets, thrombin stimulated
Experimental: as §1
ROS production was quantified as previously reported by DCFH-DA, a ROS-sensitive probe that yields upon oxidation the fluorescent adduct DCF that is trapped inside the cells. Briefly, washed platelets (1.0 × 10^8/mL), pre-incubated with saline, compounds 4 or 5, for 15 min at 37 °C, were stimulated by 0.1 U/mL thrombin. Incubation was stopped by cooling samples in ice bath and then samples were immediately analyzed in a Merck Millipore Bioscience Guava easyCyte flow cytometer (Merk Millipore, Burlington, MA, USA). The reported IC50 value is the molar concentration of the compound able to obtain 50% inhibition of the […] induced by the agonist and is calculated by the percentage of inhibition that is the inhibition of the […] measured in the presence of the agent compared with that measured in a control sample containing saline, carried out under the same conditions.

[3] = test system: human neutrophils; test: Flow cytometric evaluation of ROS production in fMLP-activated neutrophils (DCFH-DA); type: cell-based; conditions: data not shown
From the text: Heparinized (heparin 10 U/mL Vister, PfizerItalia, Borgo San Michele, Latina, Italy) venous blood was obtained from healthy male volunteers after written informed consent. Neutrophils were isolated by dextran sedimentation (Dextran 70.000 Plander, Fresenius Kabi Italia, Verona, Italy), and subsequent centrifugation on a Ficoll-Hypaque density gradient (Lympholyte-I from Cedarlane Laboratories Ltd. Hornby, ON, Canada), as described. Contaminating erythrocytes were removed by hypotonic lysis. Neutrophils were washed and resuspended in Hanks’balanced salt solution (HBSS; EuroCLone, Wetherby West, Yorkshire, UK) mixed with Dulbecco’s PBS (EuroClone; HBBS:PBS. Final cell suspensions contained 97% or more neutrophils and more than 98% viable cells, as evaluated by a trypan blue test kit (Sigma Aldrich).
Flow cytometric analysis of neutrophil oxidative metabolism was carried out according to literature method. Briefly, neutrophils, were cultured for 1 h with or without 4d and 5d at different concentration. Thereafter, neutrophils were pre-treated with 2′-7′-dichlorofluorescein-diacetate (DCFH-DA; Sigma, Milan, Italy) ([…]), During the incubation time, DCFH-DA entered into the cells, and it was cleaved by intracellular esterases to give non-fluorescence DCFH trapped within the cells. After washing in PBS, the cells were incubated for 15 min at room temperature in the presence or absence of N-formyl-L-methionin-L-leucyl-L-phenylalanine (fMLP; Sigma, Milan, Italy) ([…]) for 30 min at 37 °C. During this period, intracellular ROS oxidized DCFH to give a green fluorescence […]. The reaction was stopped by keeping the samples on ice before being analyzed by flow cytometry (FC500, Beckman Coulter).

Row | Compound | IC50 ([1]; Platelet) [µM] | IC50 ([2]; Homo sapiens, Platelet) [µM] | IC50 [2] | melting point [°C] | activity towards ROS production in platelets (in words) [2] | IC50 [1] [µM] | activity towards ROS production in neutrophils (in words) [3]
1 | COc1cc(/C=N/NC(=O)c2cnn(CC(O)c3ccccc3)c2N)ccc1OC(F)F (centres unmarked) [4a, (E)-5-Amino-N′-(4-(difluoromethoxy)-3-methoxybenzylidene)-1-(2-hydroxy-2-phenylethyl)-1H-pyrazole-4-carbohydrazide] | 7.6 ± 0.5 | ~10 | 10.1 ± 2.1 µM | 119 to 121 |  |  | 
2 | COc1cccc(/C=N/NC(=O)c2cnn(CC(O)c3ccccc3)c2N)c1OC1CCCC1 (centres unmarked) [4b, (E)-5-Amino-N′-(2-(cyclopentyloxy)-3-methoxybenzylidene)-1-(2-hydroxy-2-phenylethyl)-1H-pyrazole-4-carbohydrazide] | 64 ± 2.5 | 20.5 ± 2.5 |  | 180 to 181 |  |  | 
3 | CCC(C)Oc1cc(/C=N/NC(=O)c2cnn(CC(O)c3ccccc3)c2N)ccc1OC (centres unmarked) [4c, (E)-5-Amino-N′-(3-(sec-butoxy)-4-methoxybenzylidene)-1-(2-hydroxy-2-phenylethyl)-1H-pyrazole-4-carbohydrazide] | 57.1 ± 1.6 | 16.7 ± 1.1 |  | 190 to 193 |  |  | 
4 | Nc1c(C(=O)N/N=C/c2ccc(OC(F)F)c(OC3CCCC3)c2)cnn1CC(O)c1ccccc1 (centres unmarked) [4e, (E)-5-Amino-N′-(3-(cyclopentyloxy)-4-(difluoromethoxy)benzylidene)-1-(2-hydroxy-2-phenylethyl)-1H-pyrazole-4-carbohydrazide] | 29.4 ± 4.4 | 32.8 ± 2.8 |  | 178 to 180 |  |  | 
5 | Nc1c(C(=O)N/N=C/c2ccc(OC(F)F)c(Oc3ccccc3)c2)cnn1CC(O)c1ccccc1 (centres unmarked) [4f, (E)-5-Amino-N′-(4-(difluoromethoxy)-3-phenoxybenzylidene)-1-(2-hydroxy-2-phenylethyl)-1H-pyrazole-4-carbohydrazide] | 9.8 ± 1.7 | ~10 | 8.6 ± 2.2 µM | 184 to 186 |  |  | 
6 | Nc1c(C(=O)N/N=C/c2ccc(OC(F)F)c(OCc3ccccc3)c2)cnn1CC(O)c1ccccc1 (centres unmarked) [4g, (E)-5-Amino-N′-(3-(benzyloxy)-4-(difluoromethoxy)benzylidene)-1-(2-hydroxy-2-phenylethyl)-1H-pyrazole-4-carbohydrazide] | 11 ± 1.2 | ~10 | 9.5 ± 2.6 µM | 144 to 146 |  |  | 
7 | COc1cc(/C=N/NC(=O)c2cnn(CC(O)c3ccccc3)c2N)cc(OC)c1OC (centres unmarked) [4h, (E)-5-Amino-1-(2-hydroxy-2-phenylethyl)-N′-(3,4,5-trimethoxybenzylidene)-1H-pyrazole-4-carbohydrazide] | > 200 | > 200 |  |  | inactive |  | 
8 | COc1cccc(/C=N/NC(=O)c2cnn(CC(O)c3ccccc3)c2N)c1Oc1ccccc1 (centres unmarked) [4i, (E)-5-Amino-1-(2-hydroxy-2-phenylethyl)-N′-(3-methoxy-2-phenoxybenzylidene)-1H-pyrazole-4-carbohydrazide] | > 200 | > 200 |  | 207 to 209 | completely inactive |  | 
9 | COc1cccc(/C=N/NC(=O)c2cnn(CC(O)c3ccccc3)c2N)c1OCc1ccccc1 (centres unmarked) [4j, (E)-5-Amino-N′-(2-(benzyloxy)-3-methoxybenzylidene)-1-(2-hydroxy-2-phenylethyl)-1H-pyrazole-4-carbohydrazide] | > 200 | > 200 |  | 198 to 200 | completely inactive |  | 
10 | CCC(C)Oc1cc(/C=N/NC(=O)c2cnn3c2NC(c2ccccc2)C3)ccc1OC (centres unmarked) [5c, (E)-N′-(3-(sec-Butoxy)-4-methoxybenzylidene)-2-phenyl-2,3-dihydro-1H-imidazo[1,2-b]pyrazole-7-carbohydrazide] | 70.9 ± 4 | 71.4 ± 6 |  | 130 to 131 |  |  | 
11 | NNC(=O)c1cnn2c1NC(c1ccccc1)C2 (centres unmarked) [compound 12, 2-Phenyl-2,3-dihydro-1H-imidazo[1,2-b]pyrazole-7-carbohydrazide] |  |  |  |  | completely inactive |  | completely inactive
12 | (E)-5-Amino-N′-(3-(cyclopentyloxy)-4-methoxybenzylidene)-1-(2-hydroxy-2-phenylethyl)-1H-pyrazole-4-carbohydrazide [4k] |  |  | 90 µM and 92.7 µM |  |  | 86.1 ± 7.8 | 

More lines, main results first:

Row | IC50 ([1]; Platelet) [µM] | IC50 ([2]; Homo sapiens, Platelet) [µM] | IC50 [2] | melting point [°C] | Compound | activity towards ROS production in platelets (in words) [2] | IC50 [1] [µM] | activity towards ROS production in neutrophils (in words) [3]
13 | 31.5 ± 5.2 | 37.2 ± 2.5 |  | 206 to 207 | COc1ccc(/C=N/NC(=O)c2cnn3c2NC(c2ccccc2)C3)cc1OC (centres unmarked) [5a, (E)-N′-(3,4-Dimethoxybenzylidene)-2-phenyl-2,3-dihydro-1H-imidazo[1,2-b]pyrazole-7-carbohydrazide] |  |  | 
14 | 59.1 ± 5.5 | 66.7 ± 5.7 |  |  | COc1cccc(/C=N/NC(=O)c2cnn3c2NC(c2ccccc2)C3)c1OC1CCCC1 (centres unmarked) [5b, (E)-N′-(2-(Cyclopentyloxy)-3-methoxybenzylidene)-2-phenyl-2,3-dihydro-1H-imidazo[1,2-b]pyrazole-7-carbohydrazide] |  |  | 
15 | 70.5 ± 8 | 78.8 ± 5.6 |  |  | O=C(N/N=C/c1ccc(OC(F)F)c(OC2CCCC2)c1)c1cnn2c1NC(c1ccccc1)C2 (centres unmarked) [5e, (E)-N′-(3-(cyclopentyloxy)-4-(difluoromethoxy)benzylidene)-2-phenyl-2,3-dihydro-1H-imidazo[1,2-b]-pyrazole-7-carbohydrazide] |  |  | 
16 | 61.6 ± 6.5 | 59.9 ± 5.7 |  | 119 to 120 | COc1ccc(/C=N/NC(=O)c2cnn3c2NC(c2ccccc2)C3)cc1OC1CCCCC1 (centres unmarked) [5f, (E)-N′-(3-(Cyclohexyloxy)-4-(methoxy)benzylidene)-2-phenyl-2,3-dihydro-1H-imidazo[1,2-b]pyrazole-7-carbohydrazide] |  |  | 
17 | 67 ± 6.6 | 77.9 ± 7.1 |  |  | O=C(N/N=C/c1ccc2c(c1)OCO2)c1cnn2c1NC(c1ccccc1)C2 (centres unmarked) [5g, (E)-N′-(benzo[d][1,3]dioxol-5-ylmethylene)-2-phenyl-2,3-dihydro-1H-imidazo[1,2-b]pyrazole-7-carbohydrazide] |  |  | 
18 | > 200 | > 200 |  |  | COc1cc(/C=N/NC(=O)c2cnn3c2NC(c2ccccc2)C3)cc(OC)c1OC (centres unmarked) [5h, (E)-2-Phenyl-N′-(3,4,5-trimethoxybenzylidene)-2,3-dihydro-1H-imidazo[1,2-b]pyrazole-7-carbohydrazide] | inactive |  | 
19 |  |  | > 200 µM |  | COc1cccc(/C=N/NC(=O)c2cnn3c2NC(c2ccccc2)C3)c1Oc1ccccc1 (centres unmarked) [5i, (E)-N′-(2-(Phenoxy)-3-(methoxy)benzylidene)-2-phenyl-2,3-dihydro-1H-imidazo[1,2-b]pyrazole-7-carbo-hydrazide] | completely inactive | > 200 | 
20 | > 200 | > 200 |  | 200 to 202 | COc1cccc(/C=N/NC(=O)c2cnn3c2NC(c2ccccc2)C3)c1OCc1ccccc1 (centres unmarked) [5j, (E)-N′-(2-(Benzyloxy)-3-(methoxy)benzylidene)-2-phenyl-2,3-dihydro-1H-imidazo[1,2-b]pyrazole-7-carbohydrazide] | completely inactive |  | 
21 | > 200 | > 200 |  | 140 to 141 | COc1ccc(/C=N/NC(=O)c2cnn3c2N(C(C)=O)C(c2ccccc2)C3)cc1OC1CCCC1 (centres unmarked) [5k, (E)-1-acetyl-N′-(3-(cyclopentyloxy)-4-methoxybenzylidene)-2-phenyl-2,3-dihydro-1H-imidazo[1,2-b]pyrazole-7-carbohydrazide] | completely inactive |  | 

From article PMC7070443, “New Hybrid Pyrazole and Imidazopyrazole Antinflammatory Agents Able to Reduce ROS Production in Different Biological Targets” (Molecules, 2020)
